From PubChem BioAssay (NCI)
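Five compound concentrations were applied to cells in 96-well plates for 48 hours; endpoints were derived by simple linear interpolation of the resulting dose-response curve. GI50 = concentration required for 50% inhibition of growth. TGI marks complete inhibition of growth.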

Assays:
Test in all cases: NCI anticancer screen, dose series, 48 h
RPMI-8226 leukemia = test system: RPMI-8226 leukemia
SF-268 CNS = test system: SF-268 CNS
OVCAR-4 ovarian = test system: OVCAR-4 ovarian
CCRF-CEM leukemia = test system: CCRF-CEM leukemia
MOLT-4 leukemia = test system: MOLT-4 leukemia
HCT-15 colon = test system: HCT-15 colon
NCI-H460 lung = test system: NCI-H460 lung
HL-60(TB) leukemia = test system: HL-60(TB) leukemia
SN12C renal = test system: SN12C renal
ACHN renal = test system: ACHN renal
T-47D breast = test system: T-47D breast
SF-539 CNS = test system: SF-539 CNS
K-562 leukemia = test system: K-562 leukemia
SK-MEL-5 melanoma = test system: SK-MEL-5 melanoma
SF-295 CNS = test system: SF-295 CNS
EKVX NSCLC = test system: EKVX NSCLC
M14 melanoma = test system: M14 melanoma
SK-MEL-2 melanoma = test system: SK-MEL-2 melanoma
SR leukemia = test system: SR leukemia
SW-620 colon = test system: SW-620 colon
HOP-92 NSCLC = test system: HOP-92 NSCLC
UO-31 renal = test system: UO-31 renal
DU-145 prostate = test system: DU-145 prostate
UACC-62 melanoma = test system: UACC-62 melanoma
NCI/ADR-RES ovarian = test system: NCI/ADR-RES ovarian
CAKI-1 renal = test system: CAKI-1 renal
A498 renal = test system: A498 renal
NCI-H522 lung = test system: NCI-H522 lung
HOP-62 NSCLC = test system: HOP-62 NSCLC
OVCAR-8 ovarian = test system: OVCAR-8 ovarian
NCI-H226 lung = test system: NCI-H226 lung
KM12 colon = test system: KM12 colon
COLO 205 colon = test system: COLO 205 colon
786-0 renal = test system: 786-0 renal
OVCAR-5 ovarian = test system: OVCAR-5 ovarian
UACC-257 melanoma = test system: UACC-257 melanoma
SK-OV-3 ovarian = test system: SK-OV-3 ovarian
HCC-2998 colon = test system: HCC-2998 colon
MCF7 breast = test system: MCF7 breast
SK-MEL-28 melanoma = test system: SK-MEL-28 melanoma
BT-549 breast = test system: BT-549 breast
SNB-19 CNS = test system: SNB-19 CNS
SNB-75 CNS = test system: SNB-75 CNS
PC-3 prostate = test system: PC-3 prostate
HS 578T breast = test system: HS 578T breast
LOX IMVI melanoma = test system: LOX IMVI melanoma
U251 CNS = test system: U251 CNS
MALME-3M melanoma = test system: MALME-3M melanoma
MDA-MB-231 breast = test system: MDA-MB-231 breast
RXF 393 renal = test system: RXF 393 renal
OVCAR-3 ovarian = test system: OVCAR-3 ovarian
A549 NSCLC = test system: A549 NSCLC
HCT-116 colon = test system: HCT-116 colon
IGROV1 ovarian = test system: IGROV1 ovarian
MDA-MB-435 = test system: MDA-MB-435
HT29 colon = test system: HT29 colon
TK-10 renal = test system: TK-10 renal

CCOc1ccc(-c2nnc(C3CC(NC(=O)c4cccc5nccnc45)C3)n2-c2ccccc2F)nc1 (configuration not stated)
GI50 (RPMI-8226 leukemia): 12.9 µM | TGI (RPMI-8226 leukemia): 35.3 µM | GI50 (SF-268 CNS): 20.4 µM | TGI (SF-268 CNS): > 100 µM | GI50 (OVCAR-4 ovarian): 12.2 µM | TGI (OVCAR-4 ovarian): > 100 µM | GI50 (CCRF-CEM leukemia): 21.3 µM | TGI (CCRF-CEM leukemia): 59.7 µM | GI50 (MOLT-4 leukemia): 14.8 µM | TGI (MOLT-4 leukemia): 39.9 µM | GI50 (HCT-15 colon): 23.2 µM | TGI (HCT-15 colon): 89 µM | GI50 (NCI-H460 lung): 26.9 µM | TGI (NCI-H460 lung): > 100 µM | GI50 (HL-60(TB) leukemia): 20.9 µM | TGI (HL-60(TB) leukemia): 48.3 µM | GI50 (SN12C renal): 14.7 µM | TGI (SN12C renal): 50.5 µM | GI50 (ACHN renal): 15.1 µM | TGI (ACHN renal): 29.8 µM | GI50 (T-47D breast): 7.24 µM | TGI (T-47D breast): 39.6 µM | GI50 (SF-539 CNS): 14.6 µM | TGI (SF-539 CNS): 29.2 µM | GI50 (K-562 leukemia): 24.1 µM | TGI (K-562 leukemia): > 100 µM | GI50 (SK-MEL-5 melanoma): 14.2 µM | TGI (SK-MEL-5 melanoma): 27.4 µM | GI50 (SF-295 CNS): 18.7 µM | TGI (SF-295 CNS): 39.7 µM | GI50 (EKVX NSCLC): 27 µM | TGI (EKVX NSCLC): > 100 µM | GI50 (M14 melanoma): 16.2 µM | TGI (M14 melanoma): 32.9 µM | GI50 (SK-MEL-2 melanoma): 14.8 µM | TGI (SK-MEL-2 melanoma): 36.4 µM | GI50 (SR leukemia): 16.5 µM | TGI (SR leukemia): 52.9 µM | GI50 (SW-620 colon): 31.9 µM | TGI (SW-620 colon): > 100 µM | GI50 (HOP-92 NSCLC): 4.02 µM | TGI (HOP-92 NSCLC): 40 µM | TGI (UO-31 renal): > 100 µM | GI50 (DU-145 prostate): 25.9 µM | TGI (DU-145 prostate): > 100 µM | GI50 (UACC-62 melanoma): 17.5 µM | TGI (UACC-62 melanoma): 38.4 µM | GI50 (NCI/ADR-RES ovarian): 19.2 µM | TGI (NCI/ADR-RES ovarian): 92.9 µM | GI50 (CAKI-1 renal): 14.3 µM | TGI (CAKI-1 renal): > 100 µM | GI50 (A498 renal): 8.31 µM | TGI (A498 renal): 58.6 µM | GI50 (NCI-H522 lung): 14.9 µM | TGI (NCI-H522 lung): 34.2 µM | GI50 (HOP-62 NSCLC): 12.7 µM | TGI (HOP-62 NSCLC): 36.9 µM | GI50 (OVCAR-8 ovarian): 22.8 µM | TGI (OVCAR-8 ovarian): > 100 µM | GI50 (NCI-H226 lung): 13.1 µM | TGI (NCI-H226 lung): 41.5 µM | GI50 (KM12 colon): 23.6 µM | TGI (KM12 colon): 60.1 µM | GI50 (COLO 205 colon): 19.1 µM | TGI (COLO 205 colon): 50.9 µM | GI50 (786-0 renal): 17.6 µM | TGI (786-0 renal): > 100 µM | GI50 (OVCAR-5 ovarian): 18.2 µM | TGI (OVCAR-5 ovarian): 52.8 µM | GI50 (UACC-257 melanoma): 19.6 µM | TGI (UACC-257 melanoma): 51 µM | GI50 (SK-OV-3 ovarian): 13.6 µM | TGI (SK-OV-3 ovarian): 38.2 µM | GI50 (HCC-2998 colon): 18.3 µM | TGI (HCC-2998 colon): 35.3 µM | GI50 (MCF7 breast): 21.4 µM | TGI (MCF7 breast): 90.7 µM | GI50 (SK-MEL-28 melanoma): 19.3 µM | TGI (SK-MEL-28 melanoma): 48.1 µM | GI50 (BT-549 breast): 10.9 µM | TGI (BT-549 breast): 23.7 µM | GI50 (SNB-19 CNS): 24.5 µM | TGI (SNB-19 CNS): > 100 µM | GI50 (SNB-75 CNS): 13.2 µM | TGI (SNB-75 CNS): 46.4 µM | GI50 (PC-3 prostate): 21.1 µM | TGI (PC-3 prostate): 86.9 µM | GI50 (HS 578T breast): 16.3 µM | TGI (HS 578T breast): 94.8 µM | GI50 (LOX IMVI melanoma): 17.5 µM | TGI (LOX IMVI melanoma): 36.7 µM | GI50 (U251 CNS): 10.7 µM | TGI (U251 CNS): 29.8 µM | GI50 (MALME-3M melanoma): 17.4 µM | TGI (MALME-3M melanoma): 47.2 µM | GI50 (MDA-MB-231 breast): 17.7 µM | TGI (MDA-MB-231 breast): 51.8 µM | GI50 (RXF 393 renal): 6.82 µM | TGI (RXF 393 renal): 21.5 µM | GI50 (OVCAR-3 ovarian): 13.3 µM | TGI (OVCAR-3 ovarian): 36.1 µM | GI50 (A549 NSCLC): 24.2 µM | TGI (A549 NSCLC): > 100 µM | GI50 (HCT-116 colon): 16 µM | TGI (HCT-116 colon): 36.2 µM | GI50 (IGROV1 ovarian): 17 µM | TGI (IGROV1 ovarian): > 100 µM | GI50 (MDA-MB-435): 21.2 µM | TGI (MDA-MB-435): 51.5 µM | GI50 (HT29 colon): 15.1 µM | TGI (HT29 colon): 32.4 µM | TGI (TK-10 renal): 31.1 µM
